Source: US20220323406A1, “METHODS AND COMPOSITIONS FOR DIFFERENTIATING STEM CELLS” (Massachusetts Institute of Technology, priority 2019, published 2022)
Structures can show the parent of a compound that is named as a salt.

Legend:
[1] = test system: ENR+CD organoids (ISC to Paneth cell differentiation); experiment: Primary screen: basal (non-stimulated) lysozyme secretion LYZ.NS, 2.5-D 384-well ENR+CD organoid differentiation; type: cell-based, mouse; conditions: primary screen; for Z.LYZ.NS: standard z score
Source text: (§1) High-throughput screening.

[2] = test system: ENR+CD organoids (ISC to Paneth cell differentiation); experiment: Primary screen: CCh-stimulated lysozyme secretion LYZ.S, 2.5-D 384-well ENR+CD organoid differentiation; type: cell-based, mouse; conditions: primary screen
Source text: as §1

ENR+CD organoids = experiment: Primary screen: ATP (CellTiter-Glo 3D, CTG) cell number/viability, 2.5-D 384-well ENR+CD organoids; conditions: primary screen;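 note: compounds given at plating and again on day 3 over a 6-day differentiation from ENR+CV stem-cell-enriched precursors, ATP measured on day 6, plate median as control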

Row | Structure (SMILES) | Dose.FC.LYZ.NS ([1]; dose 0.08 uM) | Dose.FC.LYZ.NS ([1]; dose 0.40 uM) | Dose.FC.LYZ.NS ([1]; dose 2.00 uM) | Dose.FC.LYZ.NS ([1]; dose 10.00 uM) | Dose.FC.LYZ.S ([2]; dose 0.08 uM) | Dose.FC.LYZ.S ([2]; dose 0.40 uM) | Dose.FC.LYZ.S ([2]; dose 2.00 uM) | Dose.FC.LYZ.S ([2]; dose 10.00 uM) | Dose.FC.CTG (ENR+CD organoids; dose 0.08 uM) | Dose.FC.CTG (ENR+CD organoids; dose 0.40 uM) | Dose.FC.CTG (ENR+CD organoids; dose 2.00 uM) | Dose.FC.CTG (ENR+CD organoids; dose 10.00 uM) | Z.LYZ.NS (standard z score) ([1]; dose 0.08 uM) | Z.LYZ.NS (standard z score) ([1]; dose 0.40 uM) | Z.LYZ.NS (standard z score) ([1]; dose 2.00 uM) | Z.LYZ.NS (standard z score) ([1]; dose 10.00 uM) | Z.CTG (standard z score) (ENR+CD organoids; dose 0.08 uM) | Z.CTG (standard z score) (ENR+CD organoids; dose 0.40 uM) | Z.CTG (standard z score) (ENR+CD organoids; dose 2.00 uM) | Z.CTG (standard z score) (ENR+CD organoids; dose 10.00 uM) | other results
1 | COc1cccc2c1C(=O)c1c(O)c3c(c(O)c1C2=O)C[C@@](O)(C(C)=O)C[C@@H]3O[C@H]1C[C@H](N)[C@H](O)[C@H](C)O1 [Daunorubicin HCl] | −0.136 log2 fold change | −0.241 log2 fold change | −0.262 log2 fold change | −0.260 log2 fold change | −0.096 log2 fold change | −0.329 log2 fold change | −0.343 log2 fold change | −0.374 log2 fold change | −0.467 log2 fold change | −0.601 log2 fold change | −0.817 log2 fold change | −1.100 log2 fold change |  |  |  |  |  |  |  |  | Z.LYZ.NS ([1]; dose 0.08 uM): −1.188; Z.LYZ.NS ([1]; dose 0.40 uM): −2.099; Z.LYZ.NS ([1]; dose 2.00 uM): −2.280; Z.LYZ.NS ([1]; dose 10.00 uM): −2.262
2 | C[C@H](NC(=O)[C@@H](O)c1cc(F)cc(F)c1)C(=O)N[C@@H]1C(=O)N(C)c2ccccc2-c2ccccc21 [LY411575] |  |  |  |  |  |  |  |  |  |  |  |  | 0.347 | −0.434 | −0.598 | −0.949 | 0.083 | −0.411 | −0.412 | −0.618 | Dose.FC.LYZ.NS (log2 fold change) ([1]; dose 0.08 uM): 0.040; Dose.FC.LYZ.NS (log2 fold change) ([1]; dose 0.40 uM): −0.050; Dose.FC.LYZ.NS (log2 fold change) ([1]; dose 2.00 uM): −0.069; Dose.FC.LYZ.NS (log2 fold change) ([1]; dose 10.00 uM): −0.109; Dose.FC.LYZ.S (log2 fold change) ([2]; dose 0.08 uM): 0.024; Dose.FC.LYZ.S (log2 fold change) ([2]; dose 0.40 uM): 0.041; Dose.FC.LYZ.S (log2 fold change) ([2]; dose 2.00 uM): −0.091; Dose.FC.LYZ.S (log2 fold change) ([2]; dose 10.00 uM): −0.157; Dose.FC.CTG (log2 fold change) (ENR+CD organoids; dose 0.08 uM): 0.035; Dose.FC.CTG (log2 fold change) (ENR+CD organoids; dose 0.40 uM): −0.172; Dose.FC.CTG (log2 fold change) (ENR+CD organoids; dose 2.00 uM): −0.172; Dose.FC.CTG (log2 fold change) (ENR+CD organoids; dose 10.00 uM): −0.259
3 | COc1ccc2cc(-c3nc(-c4ccc([S+](C)[O-])cc4)[nH]c3-c3ccncc3)ccc2c1 (stereo not shown) [Tie2 kinase inhibitor] | 0.009 log2 fold change | 0.002 log2 fold change | 0.181 log2 fold change | −0.031 log2 fold change | 0.018 log2 fold change | −0.021 log2 fold change | 0.024 log2 fold change | −0.097 log2 fold change | 0.005 log2 fold change | 0.074 log2 fold change | −0.314 log2 fold change | −0.549 log2 fold change | 0.080 | 0.019 | 1.577 | −0.274 | 0.012 | 0.177 | −0.750 | −1.311 | 
4 | COc1cc(N2CCC(N)CC2)ccc1Nc1ncc(Cl)c(-c2c[nH]c3ccccc23)n1 [AZD3463] | −0.147 log2 fold change | −0.190 log2 fold change | −0.232 log2 fold change | −0.209 log2 fold change | −0.199 log2 fold change | −0.293 log2 fold change | −0.315 log2 fold change | −0.328 log2 fold change | −0.275 log2 fold change | −0.341 log2 fold change | −0.772 log2 fold change | −0.960 log2 fold change | −1.279 | −1.652 | −2.021 | −1.820 | −0.657 | −0.814 | −1.843 | −2.293 | 
